Five compounds from patent publication US9683014B2, “Dipeptide mimetics of NGF and BDNF neurotrophins” (UCHREZHDENIE ROSSIISKOI AKADEMII MEDITSYNSKIKH NAUK …, priority 2009, dated 2017) can be followed below.

The subject of one data set is HT-22 neuronal cell line. The data set can be described thus: Viability of HT-22 neuronal cell line without damaging factors (MTT test). The format is cell-based, mouse. Particulars: FIG. 1.1, different molar concentrations. The procedure:
The rat adrenal […] pheochromocytoma cell line PC12 was obtained from the Cell Culture Museum, RAN Institute of Molecular Genetics. The immortalized mouse hippocampal cell line HT-22 was a gift from Prof. F. Viegant, Utrecht University, the Netherlands.
The cells were grown in DMEM medium containing 5% FBS and 2 mM L-glutamine. The cells were incubated at 37° C. and 5% CO2. The growth medium was changed at 24 hours after inoculation and every 3 days thereafter. The cells were re-plated every week into culture flasks with a total area of 75 cm^2.
All types of cells were plated in DMEM medium.

The test system of data set [1] is HT-22 cells. The data set can be described thus: Oxidative stress (H2O2) model in cultured HT-22 cells (MTT test). Particulars: added 24 hours prior to the stress exposure, 10^−8 M to 10^−5 M. The format is cell-based, mouse. A general note: Tetrazolium assays rely on reduction of a dye to a coloured formazan, in cell work by metabolically active cells.
Protocol: To induce an oxidative stress, the cells were placed in a growth medium containing 5% FBS, then a freshly prepared H2O2 solution was added to a final concentration of 1.5 mM and incubated for 30 min at 37° C. and 5% CO2. Thereafter, the medium was replaced with a new one and the cells were cultured for 4 h under the same conditions.
The determination of cell viability was carried out by MTT test. […] At the end of an experiment the growth medium was replaced with an MTT solution (0.5 mg/ml) and incubated for 30 min at 37° C. and 5% CO2. The MTT solution was then removed from the wells and DMSO was added to dissolve the formazan precipitate. Then the optical density was measured using a Multiscan (Thermo) spectrophotometer at a wavelength of 600 nm.
The next data set deals with Balb/c mice. The data set can be described thus: Behavioral despair test according to Porsolt. Type of data set: in vivo, mouse. The procedure: In order to detect a potential antidepressant activity of the peptide BDNF mimetics, the behavioral despair test was used in the original version (Porsolt R. D., Anton G., Blavet N., Jalfre M. Behavioral despair in rats: a new model sensitive to antidepressants. European Journal of Pharmacology, 1978, 47, 379-391).
For these experiments, male Balb/c mice weighing 20-22 g were used. On day 1, the animals were placed in a narrow vessel filled with water at 22° C. for 10 min. 60 min later a test compound was administered intraperitoneally (GSB-106 at 1 mg/kg, GBK-108 and GBK-201 at 0.01, 0.1, 1.0, 10.0 mg/kg). 24 hours later the animals were placed again in the same conditions to record the retention time of the characteristic immobile posture (abandoning any active defensive and exploratory behavior) for a 5 min test period. Imipramine was administered 60 min prior to the 5 min test period (on day 2). The control groups were treated with distilled water. Each experimental group comprised at least 6 mice.

Data set [2] relates to HT-22 cells. The following applies: added 24 hours prior to glutamate. The procedure: The determination of cell viability was carried out by MTT test. MTT is a water soluble tetrazolium salt of yellow color which readily permeates cells. In living cells, MTT is converted into water insoluble formazan crystals of violet color. At the end of an experiment the growth medium was replaced with an MTT solution (0.5 mg/ml) and incubated for 30 min at 37° C. and 5% CO2. The MTT solution was then removed from the wells and DMSO was added to dissolve the formazan precipitate. Then the optical density was measured using a Multiscan (Thermo) spectrophotometer at a wavelength of 600 nm.

SMILES strings stand for the structures. Peptide text beside a SMILES is read from it.

Consider `NCCCC[C@H](NC(=O)[C@H](CCC(=O)O)NC(=O)CCC(=O)O)C(=O)NCCCCNC(=O)[C@H](CCCCN)NC(=O)[C@H](CCC(=O)O)NC(=O)CCC(=O)O` [GK-2c, bis-(N-monosuccinyl-glutamyl-lysine)tetramethylenediamide], for which, in the data set on HT-22 neuronal cell line, the “viability of HT-22 cells” value is reported as “reduced the viability”.

As to `CC(=O)N[C@@H](CC(=O)O)C(=O)N[C@@H](CO)C(N)=O` [GBK-108, N-acetyl-aspartyl-serine amide] (Ac-Asp-Ser-NH2), in the data set with HT-22 cells [1], the “neuronal survival under oxidative stress” value is “improved the neuronal survival”. The immobility time entry with Balb/c mice (GBK-108 at 10 mg/kg i.p., 24 h before the test) is reported as “increased the immobility time”.

As for `CSCC[C@H](NC(=O)[C@H](CC(=O)O)NC(C)=O)C(N)=O` [GBK-201, N-acetyl-aspartyl-methionine amide] (Ac-Asp-Met-NH2), the immobility time result with Balb/c mice (GBK-201 at 0.01 and 0.1 mg/kg i.p., 24 h before the test) is “increased the immobility time”.

As to `NCCCC[C@H](NC(=O)[C@H](CO)NC(=O)CCC(=O)O)C(=O)NCCCCCCNC(=O)[C@H](CCCCN)NC(=O)[C@H](CO)NC(=O)CCC(=O)O` [GSB-106, bis-(N-monosuccinyl-seryl-lysine) hexamethylenediamide], the “neuronal survival under oxidative stress” value in the data set with HT-22 cells [1] is listed as “improved the neuronal survival”. Moreover, the “protective effect against glutamate cytotoxicity” value with HT-22 cells [2] was “protective effect”. Besides, the immobility time entry with Balb/c mice (GSB-106 1 mg/kg i.p., 24 h before the test) is “reducing the immobility time”.

For the compound `CN(C)CCCN1c2ccccc2CCc2ccccc21` [imipramine, Imipramine, reference compound], the immobility time entry with Balb/c mice (imipramine 60 min prior to the 5 min test) is “reducing the immobility time”.
